The target in test [1] is Fibroblast growth factor receptor 2 (Homo sapiens) (UniProt P21802). The test can be described thus: Selectivity interaction (Upstate Kinase Profiler service (Millipore)) EUB0000056c FGFR2. The note with it: at 1 µM.
For test [2], the target named is Serine/threonine-protein kinase SIK1 (Homo sapiens) (UniProt P57059). The note with it: at 10 µM.
For test [3], the target named is Mitogen-activated protein kinase 14 (Homo sapiens, UniProt Q16539). The test can be described thus: Selectivity interaction (Enyzmatic assay) EUB0000601a MAPK14.
The target of test [4] is Ribosomal protein S6 kinase alpha-6 (Homo sapiens, UniProt Q9UK32). The note with it: at 10 µM.
The next test deals with Focal adhesion kinase 1 (Homo sapiens, UniProt Q05397). The test can be described thus: Selectivity interaction (KinomeScan (DiscoverX)) EUB0000092b PTK2. The note with it: at 10 µM.
The target in test [5] is T1, Myosin-IIIb (Homo sapiens) (UniProt Q8WXR4).
T1 sequence (whole entry): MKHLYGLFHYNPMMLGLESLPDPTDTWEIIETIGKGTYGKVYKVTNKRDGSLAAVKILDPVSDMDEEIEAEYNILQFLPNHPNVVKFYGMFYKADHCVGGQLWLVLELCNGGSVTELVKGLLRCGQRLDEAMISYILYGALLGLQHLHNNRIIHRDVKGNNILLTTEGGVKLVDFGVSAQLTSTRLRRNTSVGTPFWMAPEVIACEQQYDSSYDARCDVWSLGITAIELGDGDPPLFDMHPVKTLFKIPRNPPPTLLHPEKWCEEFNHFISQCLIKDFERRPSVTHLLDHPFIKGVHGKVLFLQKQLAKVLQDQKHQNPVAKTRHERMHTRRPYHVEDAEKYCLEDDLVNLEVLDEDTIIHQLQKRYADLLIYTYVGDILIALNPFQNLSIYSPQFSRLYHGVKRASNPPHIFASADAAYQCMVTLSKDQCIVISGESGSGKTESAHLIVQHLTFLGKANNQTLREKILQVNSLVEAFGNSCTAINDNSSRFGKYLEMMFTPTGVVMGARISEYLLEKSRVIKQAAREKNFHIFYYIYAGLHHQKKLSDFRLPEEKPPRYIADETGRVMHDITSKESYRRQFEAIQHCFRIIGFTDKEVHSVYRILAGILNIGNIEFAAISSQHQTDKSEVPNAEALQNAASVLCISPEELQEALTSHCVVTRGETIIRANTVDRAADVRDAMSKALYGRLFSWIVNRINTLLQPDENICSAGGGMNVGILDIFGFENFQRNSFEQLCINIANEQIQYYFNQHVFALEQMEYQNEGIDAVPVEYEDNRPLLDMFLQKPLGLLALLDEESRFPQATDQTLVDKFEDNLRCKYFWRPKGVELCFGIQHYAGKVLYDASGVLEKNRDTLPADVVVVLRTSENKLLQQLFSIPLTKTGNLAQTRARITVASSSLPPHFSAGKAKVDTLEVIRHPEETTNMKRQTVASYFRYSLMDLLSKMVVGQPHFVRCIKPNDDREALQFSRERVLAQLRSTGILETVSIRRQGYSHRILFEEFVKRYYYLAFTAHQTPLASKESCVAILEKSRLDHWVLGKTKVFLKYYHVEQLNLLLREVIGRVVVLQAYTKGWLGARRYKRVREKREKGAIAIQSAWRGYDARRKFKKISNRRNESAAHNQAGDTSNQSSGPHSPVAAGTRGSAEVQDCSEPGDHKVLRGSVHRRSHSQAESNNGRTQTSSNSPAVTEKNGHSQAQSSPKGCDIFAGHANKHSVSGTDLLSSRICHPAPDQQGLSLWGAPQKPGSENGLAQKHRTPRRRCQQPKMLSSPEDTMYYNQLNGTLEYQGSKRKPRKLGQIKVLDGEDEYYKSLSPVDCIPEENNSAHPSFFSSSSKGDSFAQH
Put plainly: Selectivity interaction (KinomeScan (DiscoverX)) EUB0000045b MYO3B.

In test [6] the test system is Epidermal growth factor receptor (Homo sapiens), P00533 [UNDEFINED MUTATION]. The test can be described thus: Selectivity interaction (KinomeScan (DiscoverX)) EUB0000045b EGFR. The note with it: at 1 µM.
Test [7] addresses Tyrosine-protein kinase Fes/Fps (Homo sapiens) (UniProt P07332). Put plainly: Selectivity interaction (KinomeScan (DiscoverX)) EUB0000666a FES. The note with it: at 10 µM.
For test [8], the target named is T2, cAMP-dependent protein kinase catalytic subunit PRKX (Homo sapiens) (UniProt P51817).
T2 sequence (whole entry): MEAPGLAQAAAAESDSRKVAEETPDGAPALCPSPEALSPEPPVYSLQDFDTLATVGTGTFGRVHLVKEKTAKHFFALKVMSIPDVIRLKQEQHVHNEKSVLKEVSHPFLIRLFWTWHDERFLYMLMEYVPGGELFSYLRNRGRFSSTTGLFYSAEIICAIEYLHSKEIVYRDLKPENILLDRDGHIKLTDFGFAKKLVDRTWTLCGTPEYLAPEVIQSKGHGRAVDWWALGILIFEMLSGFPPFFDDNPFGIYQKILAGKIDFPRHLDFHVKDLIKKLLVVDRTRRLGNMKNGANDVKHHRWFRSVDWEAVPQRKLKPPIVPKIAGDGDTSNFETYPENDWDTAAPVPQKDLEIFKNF
Put plainly: Selectivity interaction (KinomeScan (DiscoverX)) EUB0000607a PRKX. The note with it: at 10 µM.

In test [9] the target is Casein kinase I isoform gamma-2 (Homo sapiens) (UniProt P78368). The test can be described thus: Selectivity interaction (Kinase panel (Invitrogen)) EUB0000639a CSNK1G2. The note with it: at 200 nM.
Test [10] concerns the target Cyclin-dependent kinase 7 (Homo sapiens, UniProt P50613). Put plainly: Selectivity interaction (KinomeScan (DiscoverX)) EUB0000229b CDK7. The note with it: at 10 µM.
Test [11] concerns the target Casein kinase I isoform delta (Homo sapiens, UniProt P48730). Put plainly: Selectivity interaction (KinomeScan (DiscoverX)) EUB0000595a CSNK1D. The note with it: at 10 µM.
Test [12] has as its target Serine/threonine-protein kinase pim-3 (Homo sapiens) (UniProt Q86V86). Put plainly: Selectivity interaction (KinomeScan (DiscoverX)) EUB0001619a PIM3. The note with it: at 1 µM.
For test [13], the system named is eIF-2-alpha kinase GCN2 (Homo sapiens), Q9P2K8 [S808G]. Put plainly: Selectivity interaction (KinomeScan (DiscoverX)) EUB0000618a EIF2AK4. The note with it: at 10 µM.

SMILES strings stand for the structures. A value given as a limit tells only on which side of the number the result lay.

Sequence of Casein kinase I isoform delta (P48730 whole entry, looked up, canonical isoform): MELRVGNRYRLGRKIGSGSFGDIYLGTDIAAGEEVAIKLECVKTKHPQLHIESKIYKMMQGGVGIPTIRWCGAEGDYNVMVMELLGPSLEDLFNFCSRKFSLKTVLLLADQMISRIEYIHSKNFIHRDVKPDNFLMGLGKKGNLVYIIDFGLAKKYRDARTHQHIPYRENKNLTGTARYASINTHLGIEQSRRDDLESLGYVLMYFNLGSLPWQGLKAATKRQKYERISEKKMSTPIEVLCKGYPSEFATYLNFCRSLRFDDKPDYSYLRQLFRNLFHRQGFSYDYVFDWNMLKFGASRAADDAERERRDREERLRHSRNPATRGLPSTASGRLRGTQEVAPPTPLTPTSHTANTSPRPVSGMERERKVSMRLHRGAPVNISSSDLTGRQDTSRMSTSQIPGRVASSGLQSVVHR
Sequence of eIF-2-alpha kinase GCN2 (Homo sapiens), Q9P2K8 [S808G] (Q9P2K8 whole entry S808G): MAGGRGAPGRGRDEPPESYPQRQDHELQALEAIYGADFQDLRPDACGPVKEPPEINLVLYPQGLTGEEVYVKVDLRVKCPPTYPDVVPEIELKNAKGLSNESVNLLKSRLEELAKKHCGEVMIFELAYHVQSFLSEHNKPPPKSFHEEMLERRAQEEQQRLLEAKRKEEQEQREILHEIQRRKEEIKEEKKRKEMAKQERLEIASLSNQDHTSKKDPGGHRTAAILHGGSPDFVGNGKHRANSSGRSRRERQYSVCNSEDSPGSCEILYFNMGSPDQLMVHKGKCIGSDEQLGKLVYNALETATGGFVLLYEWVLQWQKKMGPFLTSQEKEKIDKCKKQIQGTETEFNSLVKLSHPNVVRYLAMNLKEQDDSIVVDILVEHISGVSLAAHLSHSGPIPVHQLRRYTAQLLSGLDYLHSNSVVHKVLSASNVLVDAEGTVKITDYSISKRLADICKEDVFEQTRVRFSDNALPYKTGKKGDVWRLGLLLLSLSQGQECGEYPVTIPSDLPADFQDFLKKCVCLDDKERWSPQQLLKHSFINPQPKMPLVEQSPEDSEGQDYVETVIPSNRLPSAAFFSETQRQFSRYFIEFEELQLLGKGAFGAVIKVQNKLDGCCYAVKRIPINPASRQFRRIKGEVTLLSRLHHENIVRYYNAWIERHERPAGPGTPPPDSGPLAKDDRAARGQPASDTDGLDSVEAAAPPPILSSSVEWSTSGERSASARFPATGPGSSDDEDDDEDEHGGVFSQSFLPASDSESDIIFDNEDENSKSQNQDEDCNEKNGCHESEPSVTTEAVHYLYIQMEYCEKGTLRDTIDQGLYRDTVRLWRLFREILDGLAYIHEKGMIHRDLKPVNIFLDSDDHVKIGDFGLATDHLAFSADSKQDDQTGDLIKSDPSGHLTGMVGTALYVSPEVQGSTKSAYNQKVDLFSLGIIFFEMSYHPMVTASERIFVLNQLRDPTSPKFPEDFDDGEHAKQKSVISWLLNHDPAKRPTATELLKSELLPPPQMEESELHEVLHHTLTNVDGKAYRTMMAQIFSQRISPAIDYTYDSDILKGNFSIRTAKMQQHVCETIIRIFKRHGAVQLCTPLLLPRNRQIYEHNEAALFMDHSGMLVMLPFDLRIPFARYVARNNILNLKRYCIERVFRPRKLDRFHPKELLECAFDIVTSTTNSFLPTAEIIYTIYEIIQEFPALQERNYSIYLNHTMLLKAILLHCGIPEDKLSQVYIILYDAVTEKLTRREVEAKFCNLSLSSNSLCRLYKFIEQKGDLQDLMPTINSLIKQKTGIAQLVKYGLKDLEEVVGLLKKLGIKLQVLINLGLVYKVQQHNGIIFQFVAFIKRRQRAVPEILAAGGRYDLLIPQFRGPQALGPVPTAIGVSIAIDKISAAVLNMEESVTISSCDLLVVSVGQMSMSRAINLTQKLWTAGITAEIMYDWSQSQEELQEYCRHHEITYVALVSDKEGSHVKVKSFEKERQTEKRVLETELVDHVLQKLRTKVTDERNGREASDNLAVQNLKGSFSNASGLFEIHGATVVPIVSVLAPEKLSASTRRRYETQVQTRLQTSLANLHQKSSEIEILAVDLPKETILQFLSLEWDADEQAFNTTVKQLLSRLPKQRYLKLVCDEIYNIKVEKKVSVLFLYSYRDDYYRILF
Sequence of Tyrosine-protein kinase Fes/Fps (Homo sapiens) (P07332 whole entry): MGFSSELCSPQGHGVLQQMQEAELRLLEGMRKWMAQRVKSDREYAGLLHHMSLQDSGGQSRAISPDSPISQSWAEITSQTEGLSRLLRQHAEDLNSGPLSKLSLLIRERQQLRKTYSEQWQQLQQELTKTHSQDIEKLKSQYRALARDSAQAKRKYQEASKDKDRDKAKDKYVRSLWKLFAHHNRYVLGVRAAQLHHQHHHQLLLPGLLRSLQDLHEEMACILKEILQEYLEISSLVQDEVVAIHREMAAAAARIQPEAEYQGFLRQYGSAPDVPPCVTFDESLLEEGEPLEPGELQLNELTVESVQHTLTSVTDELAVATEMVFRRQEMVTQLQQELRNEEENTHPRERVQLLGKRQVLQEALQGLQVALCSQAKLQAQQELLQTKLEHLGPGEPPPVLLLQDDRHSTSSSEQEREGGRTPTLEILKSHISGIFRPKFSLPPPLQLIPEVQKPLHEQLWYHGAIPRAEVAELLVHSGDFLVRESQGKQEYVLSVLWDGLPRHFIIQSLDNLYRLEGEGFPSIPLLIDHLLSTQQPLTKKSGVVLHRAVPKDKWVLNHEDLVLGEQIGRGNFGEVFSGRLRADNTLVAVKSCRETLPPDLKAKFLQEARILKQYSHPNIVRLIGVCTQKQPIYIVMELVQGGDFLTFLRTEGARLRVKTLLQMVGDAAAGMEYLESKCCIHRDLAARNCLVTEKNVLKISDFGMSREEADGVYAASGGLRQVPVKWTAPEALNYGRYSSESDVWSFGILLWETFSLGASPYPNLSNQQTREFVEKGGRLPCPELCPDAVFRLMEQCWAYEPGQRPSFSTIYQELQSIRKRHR
Sequence of Ribosomal protein S6 kinase alpha-6 (Q9UK32 whole entry): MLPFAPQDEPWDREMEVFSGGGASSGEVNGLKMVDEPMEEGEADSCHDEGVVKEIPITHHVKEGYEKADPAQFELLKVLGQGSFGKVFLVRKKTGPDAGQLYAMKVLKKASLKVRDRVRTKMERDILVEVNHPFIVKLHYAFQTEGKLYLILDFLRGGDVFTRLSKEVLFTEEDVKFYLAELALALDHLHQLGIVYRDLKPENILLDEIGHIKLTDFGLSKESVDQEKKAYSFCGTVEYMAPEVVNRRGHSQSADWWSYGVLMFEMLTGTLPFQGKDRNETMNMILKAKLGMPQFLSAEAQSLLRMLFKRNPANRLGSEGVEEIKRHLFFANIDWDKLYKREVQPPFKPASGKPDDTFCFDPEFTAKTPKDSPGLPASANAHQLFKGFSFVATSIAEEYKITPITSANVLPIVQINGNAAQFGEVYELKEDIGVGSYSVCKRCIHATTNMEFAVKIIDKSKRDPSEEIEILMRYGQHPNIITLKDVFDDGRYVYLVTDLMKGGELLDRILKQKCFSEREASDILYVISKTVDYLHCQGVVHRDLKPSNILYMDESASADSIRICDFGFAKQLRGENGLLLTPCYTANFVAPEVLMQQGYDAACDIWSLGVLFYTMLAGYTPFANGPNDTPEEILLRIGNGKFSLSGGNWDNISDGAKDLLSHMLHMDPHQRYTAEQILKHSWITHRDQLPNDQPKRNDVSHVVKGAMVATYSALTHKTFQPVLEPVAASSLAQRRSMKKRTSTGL
Sequence of Focal adhesion kinase 1 (Q05397 2-1052 limits assumed): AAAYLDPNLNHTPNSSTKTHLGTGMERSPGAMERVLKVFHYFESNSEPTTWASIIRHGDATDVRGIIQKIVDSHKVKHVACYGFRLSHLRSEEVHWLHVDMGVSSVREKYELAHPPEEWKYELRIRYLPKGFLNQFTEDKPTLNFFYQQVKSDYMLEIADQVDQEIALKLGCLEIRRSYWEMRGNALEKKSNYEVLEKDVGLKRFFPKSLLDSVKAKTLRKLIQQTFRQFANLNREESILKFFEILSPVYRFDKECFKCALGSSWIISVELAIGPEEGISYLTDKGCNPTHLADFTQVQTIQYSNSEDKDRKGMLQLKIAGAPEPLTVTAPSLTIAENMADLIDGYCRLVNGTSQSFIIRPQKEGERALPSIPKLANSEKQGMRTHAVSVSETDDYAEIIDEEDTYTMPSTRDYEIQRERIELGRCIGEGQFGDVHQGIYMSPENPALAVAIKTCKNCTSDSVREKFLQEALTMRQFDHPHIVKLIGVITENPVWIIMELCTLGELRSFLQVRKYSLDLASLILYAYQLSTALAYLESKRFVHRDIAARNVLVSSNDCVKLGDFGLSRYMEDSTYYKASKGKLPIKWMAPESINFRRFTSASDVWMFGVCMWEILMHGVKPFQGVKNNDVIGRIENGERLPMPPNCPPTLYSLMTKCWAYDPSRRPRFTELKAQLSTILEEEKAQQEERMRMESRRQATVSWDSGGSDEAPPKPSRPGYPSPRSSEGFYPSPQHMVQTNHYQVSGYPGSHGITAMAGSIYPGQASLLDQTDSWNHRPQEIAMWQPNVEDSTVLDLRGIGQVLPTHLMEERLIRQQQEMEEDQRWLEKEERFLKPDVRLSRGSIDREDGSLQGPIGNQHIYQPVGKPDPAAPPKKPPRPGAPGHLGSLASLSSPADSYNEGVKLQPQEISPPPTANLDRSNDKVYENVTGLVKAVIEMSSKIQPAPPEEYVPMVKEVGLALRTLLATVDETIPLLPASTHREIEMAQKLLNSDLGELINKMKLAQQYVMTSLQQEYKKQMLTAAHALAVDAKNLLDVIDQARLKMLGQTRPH

With `Cc1ccc(-c2ccc3c(ccc4sc5c(c43)NC[C@@H](C)NC5=O)n2)cn1`, the % of inhibition in test [1] is -10%. Consider `Cc1cc([C@@H](C)Nc2ccccc2C(=O)O)c2nc(N3CCOCC3)cc(=O)n2c1` [AZD-6482], for which the % of control in [2] is 100%.

A word on the IC50: it is the concentration needed to halve the response being measured. A higher IC50 goes with lower potency. Consider `CCc1cc(Nc2nccc(-c3c(-c4ccc(OC)c(C(=O)Nc5c(F)cccc5F)c4)nc4ccccn34)n2)c(OC)cc1N1CCC(N2CCN(S(C)(=O)=O)CC2)CC1`, for which the IC50 in [3] was > 10 µM. For the compound `CCN(CC)CCCCNc1ncc2cc(-c3cc(OC)cc(OC)c3)c(NC(=O)NC(C)(C)C)nc2n1`, the % of control in test [4] amounted to 100%. `CCC(=O)N1CCN(c2ccc(-n3c(=O)ccc4cnc5ccc(-c6cnc7ccccc7c6)cc5c43)cc2C(F)(F)F)CC1` registered a % of control on Focal adhesion kinase 1 of 14%. As to `C=CC(=O)Nc1cc(-n2c(=O)ccc3cnc4ccc(-c5ccc(NS(C)(=O)=O)cc5)cc4c32)ccc1C`, the figures for the % of control in test [5] (at 1 µM), in test [5] (at 10 µM) and in test [6] were 92%, 100% and 100%, respectively. With `O=C(NOC[C@H](O)CO)c1ccc(F)c(F)c1Nc1ccc(I)cc1F`, the % of control in [7] was determined as 100%. With `CNC(=O)Nc1ccc(-c2nc(N3CC4CCC(C3)O4)c3cnn(C4CCC5(CC4)OCCO5)c3n2)cc1`, the % of control in test [8] is 100%. Consider `CC[C@@H]1[C@H](F)C(=O)N[C@@H]1COc1nccc2cc(C(N)=O)c(OC)cc12` [ZIMLOVISERTIB], for which, in [9], the % of inhibition came out at 64.8%. As for `COc1cc(N(C)c2ccnc3ccc(C(F)(F)F)cc23)cc(OC)c1OC`, the % binding in [10] was determined as 57%. Compound `COCC(=O)NC/C=C/c1ccc2ncnc(Nc3ccc(Oc4ccc(C)nc4)c(C)c3)c2c1` [CP-724714] yielded a % of control in test [11] of 90%.

`N#Cc1cccc(-c2c[nH]c3ncnc(N4CCOCC4)c23)c1` gave a % of control in test [12] of 100%. For the compound `O[C@H]1CC[C@H](Nc2ncc3nc(Nc4c(F)cc(F)cc4F)n([C@H]4CCOC4)c3n2)CC1`, the % of control in test [13] amounted to 100%.

(Values after ChEMBL document CHEMBL5465560, “Selectivity Literature for EUbOPEN Chemogenomic Library” (2024).)
